The text below walks through data of patent US20170184612A1, “USE OF LEUKOCYTES AND NOVEL BIOMARKERS IN THE DIAGNOSIS, CONFIRMATION, AND TREATMENT OF A NEUROLOGICAL DISORDER” (The Trustees of Columbia University in the City of New York, priority 2014, published 2017).

The subject of assay [1] is peripheral blood mononuclear cells (PBMC), T cells. Briefly: ELISpot assay, IL-5 release (SFC) after stimulation with a-synuclein epitope pools. The class given is cell-based, human. The procedure: (§1) Blood from age matched controls and PD patients were obtained and mononuclear cells were isolated by gradient centrifugation.
(§2) Release of the cytokines gamma-interferon, which measures activation of CD4+ and/or CD8+ T cells, and the interleukin, IL-5, which measures activation of CD4+ T cells was measured by ELISpot assay. […] After 22 hours of stimulation at 37 C, the cells were removed and release of cytokines was measured by colorimetric detection of spot-forming cells (SFC). Confirmed release of cytokine is determined by the presence of a minimum of 20 SFC per million cells.
(§3) The binding algorithms in SubAim 1 predict how well the peptides would bind to MHC if present, but not if they are present in patients. To determine this, the presence of T cell response against the candidate antigens by patient blood-derived peripheral blood mononuclear cells (PBMC) is assessed by ELISPOT assays upon stimulation with the peptides. This assay detects and quantifies cytokine release (in this case, IFNγ and IL-5) from specific activated T cells.
(§4) Data were obtained from blood samples (25 ml) from 44 PD patients and 24 age-matched controls. The experiments were conducted blindly. PBMCs from these samples were isolated and exposed to pools comprising the 122 candidate class I and class II antigens and phosphorylated S129 epitopes generated in Subaim 1. For the PBMCs responsive to the pooled peptides, the response was then deconvoluted to identify individual epitopes.
(§5) PMBC fractions are recovered by standard methods with Ficoll gradient and T cells expansion (Oseroff et al., 2010). The methods for the analysis of T cell reactions and measurement of cytokines production using the enzyme-linked immunosorbent spot (ELISPOT) assay are published in analogous experiments to discover antigens in multiple sclerosis (Lolli et al., 2013) and in hay fever allergens (Oseroff et al., 2010). T cell responses are determined by measuring IFNγ and IL-5 release by ELISPOT. Statistical analysis of differences between populations is expected to be non-parametric and analyzed with the U-Mann-Whitney test. If there were a normal distribution of response, which is a priori unlikely as some patients have no T cell response, with an SD=1, 8 patients per group would be required to provide a p>90% that the study detect a >2 fold difference at a two-sided 0.05 significance level.

The test system is the same in assay [2]. Put plainly: ELISpot assay, gamma-interferon release (SFC) after stimulation with a-synuclein epitope pools. The class given is cell-based, human. Particulars: for Pool +: IFNg, Pool Stimulated, number of donors with a positive response, Donors tested 1. The procedure:
as §1, §2, §3, §4, §5

[3] abbreviates: Patients Summary, PD patients, of donors tested (peptide).
The mark [4] stands for this setting: Patients Summary, PD patients, single peptide.
Setting [5] is: Patients Summary, Phospho pool peptides.
The mark [6] stands for this setting: Patients Summary, Phospho pool peptides, 10 donors tested.
The mark [7] stands for this setting: peptides of pool 'Poshpho', 8 donors tested.
Setting [8] is: peptides of pool 'Poshpho', 8 donors tested, number of donors positive.
The mark [9] stands for this setting: number of donors positive to the single peptide, second 'Pool Stimulated' section (from r296), 12 donors tested.
Where [10] appears, read: peptide + / donors tested (peptide), second 'Pool Stimulated' section (from r296), 12 donors tested.
Where [11] appears, read: single peptide, second 'Pool Stimulated' section (from r296), 12 donors tested.

For “3521.0038 (EMPSEEGYQD; listed as Homo sapiens)”, the “IL-g Peptide + (donors positive to the peptide)” value in assay [1] (setting [3]) amounted to 0; in assay [1] (setting [6]), 1. The “IL-g Response Frequency” value in assay [1] (setting [4]) came out at 0%; in assay [1] (setting [5]), 10%; in assay [1] (setting [7]), 13%. The figures for the “IL-g Total SFC” value in assay [1] (setting [4]), in assay [1] (setting [5]) and in assay [1] (setting [7]) were 0 SFC, 620 SFC and 33 SFC, respectively. Also, the “IL-g Avg SFC” value was 620 SFC in assay [1] (setting [5]) and 33 SFC in assay [1] (setting [7]). In addition, in assay [1] (setting [8]), the “IL-g Peptide +” value is reported as 1. Also, the “Pool +” value is given as 0 in assay [2] and 1 in assay [2] (pool 'Phospho' (phosphorylated peptides)). Besides, the “IFNg Peptide + (donors positive to the peptide)” value in assay [2] (setting [3]) worked out at 0; in assay [2] (setting [6]) it was 3. Besides, the “IFNg Response Frequency” value was determined as 0% in assay [2] (setting [4]), 30% in assay [2] (setting [5]) and 13% in assay [2] (setting [7]). The figures for the “IFNg Total SFC” value in assay [2] (setting [4]), in assay [2] (setting [5]) and in assay [2] (setting [7]) were 0 SFC, 1507 SFC and 40 SFC, respectively. In addition, the “IFNg Avg SFC” value in assay [2] (setting [5]) is 502 SFC; in assay [2] (setting [7]), 40 SFC. The “IFNg Peptide +” value in assay [2] (setting [8]) is 1.
Turning to “3521.002 (AGKTKEGVL; listed as Homo sapiens)”, in assay [1] (setting [3]), the “IL-g Peptide + (donors positive to the peptide)” value was found to be 1. In assay [1] (setting [4]), the “IL-g Avg SFC” value is recorded as 106 SFC, the “IL-g Response Frequency” value was 13% and the “IL-g Total SFC” value is reported as 106 SFC. Also, in assay [1] (setting [9]), the “IL-g Peptide +” value came out at 0. The “IL-g Response Frequency” value in assay [1] (setting [10]) stood at 0%. Further, the “IL-g Total SFC” value in assay [1] (setting [11]) was found to be 0 SFC. The “Pool +” value in assay [2] came out at 0. The “IFNg Peptide + (donors positive to the peptide)” value in assay [2] (setting [3]) was determined as 1. In assay [2] (setting [4]), the “IFNg Avg SFC” value is recorded as 98 SFC, the “IFNg Response Frequency” value was found to be 13% and the “IFNg Total SFC” value turned out to be 98 SFC. Also, in assay [2] (setting [9]), the “IFNg Peptide +” value is reported as 0. In addition, the “IFNg Response Frequency” value in assay [2] (setting [10]) amounted to 0%. Also, the “IFNg Total SFC” value in assay [2] (setting [11]) is listed as 0 SFC.
As for “3521.0047 (IAAATGFVKK; listed as Homo sapiens)”, the “IL-g Peptide + (donors positive to the peptide)” value in assay [1] (setting [3]) was found to be 0. In addition, the “IL-g Response Frequency” value in assay [1] (setting [4]) and in assay [1] (setting [10]) was 0% each time. Besides, the “IL-g Total SFC” value in assay [1] (setting [4]) and in assay [1] (setting [11]) was 0 SFC throughout. The “IL-g Peptide +” value in assay [1] (setting [9]) was found to be 0. The “Pool +” value in assay [2] was 0. Further, the “IFNg Peptide + (donors positive to the peptide)” value in assay [2] (setting [3]) is reported as 0. Also, the “IFNg Response Frequency” value in assay [2] (setting [4]) and in assay [2] (setting [10]) was 0% throughout. The “IFNg Total SFC” value in assay [2] (setting [4]) and in assay [2] (setting [11]) was 0 SFC throughout. Besides, in assay [2] (setting [9]), the “IFNg Peptide +” value was 0.
Take “3521.0057 (NEEGAPQEGI; listed as Homo sapiens)”: in assay [1] (setting [3]), the “IL-g Peptide + (donors positive to the peptide)” value was determined as 0. The “IL-g Response Frequency” value in assay [1] (setting [4]) and in assay [1] (setting [10]) was 0% in each case. Further, the “IL-g Total SFC” value in assay [1] (setting [4]) and in assay [1] (setting [11]) was 0 SFC in each case. In addition, the “IL-g Peptide +” value in assay [1] (setting [9]) is 0. The “Pool +” value in assay [2] is 0. In addition, the “IFNg Peptide + (donors positive to the peptide)” value in assay [2] (setting [3]) was 0. The “IFNg Response Frequency” value in assay [2] (setting [4]) is recorded as 0%; in assay [2] (setting [10]), 50%. For the same substance, the “IFNg Total SFC” value in assay [2] (setting [4]) worked out at 0 SFC; in assay [2] (setting [11]) it was 26.7 SFC. Further, the “IFNg Peptide +” value in assay [2] (setting [9]) came to 1. The “IFNg Avg SFC” value in assay [2] (setting [11]) is given as 26.7 SFC.
Take “3521.0019 (APGKTKEGV; listed as Homo sapiens)”: in assay [1] (setting [3]), the “IL-g Peptide + (donors positive to the peptide)” value was 0. Besides, the “IL-g Response Frequency” value in assay [1] (setting [4]) and in assay [1] (setting [10]) was 0% each time. Besides, the “IL-g Total SFC” value in assay [1] (setting [4]) and in assay [1] (setting [11]) was 0 SFC in each case. Also, the “IL-g Peptide +” value in assay [1] (setting [9]) stood at 0. In addition, the “Pool +” value in assay [2] is listed as 0. The “IFNg Peptide + (donors positive to the peptide)” value in assay [2] (setting [3]) was determined as 0. For the same substance, the “IFNg Response Frequency” value in assay [2] (setting [4]) and in assay [2] (setting [10]) was 0% throughout. Further, the “IFNg Total SFC” value in assay [2] (setting [4]) and in assay [2] (setting [11]) was 0 SFC in each case. Also, in assay [2] (setting [9]), the “IFNg Peptide +” value is 0.
